molecular target: PIK3CG (human) (UniProt P48736); test: Inhibition of PIK3CG Kinase Activity
Sequence (P48736 whole entry, looked up): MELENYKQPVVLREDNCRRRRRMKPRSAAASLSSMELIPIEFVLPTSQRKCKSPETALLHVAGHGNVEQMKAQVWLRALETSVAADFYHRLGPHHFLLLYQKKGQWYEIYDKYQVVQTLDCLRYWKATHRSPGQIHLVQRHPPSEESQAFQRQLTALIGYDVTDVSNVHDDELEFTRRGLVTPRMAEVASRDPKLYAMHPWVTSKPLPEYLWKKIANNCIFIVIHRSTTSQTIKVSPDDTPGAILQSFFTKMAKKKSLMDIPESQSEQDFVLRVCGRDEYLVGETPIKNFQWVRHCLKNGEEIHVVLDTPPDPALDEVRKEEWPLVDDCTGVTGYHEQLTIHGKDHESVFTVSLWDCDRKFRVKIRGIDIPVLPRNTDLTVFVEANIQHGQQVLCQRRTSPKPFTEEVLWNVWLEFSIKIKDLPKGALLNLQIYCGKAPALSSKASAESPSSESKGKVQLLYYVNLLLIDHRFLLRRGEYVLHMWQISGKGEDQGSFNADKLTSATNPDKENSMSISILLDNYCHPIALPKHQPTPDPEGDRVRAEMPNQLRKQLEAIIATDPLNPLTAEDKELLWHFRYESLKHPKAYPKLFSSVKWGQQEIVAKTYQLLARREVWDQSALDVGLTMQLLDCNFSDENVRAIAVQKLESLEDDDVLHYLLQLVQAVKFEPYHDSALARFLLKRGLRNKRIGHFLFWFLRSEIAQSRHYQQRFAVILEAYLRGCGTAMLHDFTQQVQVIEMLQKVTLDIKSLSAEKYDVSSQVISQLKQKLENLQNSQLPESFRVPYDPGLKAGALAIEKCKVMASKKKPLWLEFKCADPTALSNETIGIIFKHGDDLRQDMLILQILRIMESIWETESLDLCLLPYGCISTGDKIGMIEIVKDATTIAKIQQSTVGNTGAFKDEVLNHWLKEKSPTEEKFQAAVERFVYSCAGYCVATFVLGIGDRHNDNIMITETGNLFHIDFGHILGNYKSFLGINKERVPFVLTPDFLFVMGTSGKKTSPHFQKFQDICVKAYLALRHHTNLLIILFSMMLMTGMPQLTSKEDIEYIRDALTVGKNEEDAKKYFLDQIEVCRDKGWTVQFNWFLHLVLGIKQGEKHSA

Row | Structure (SMILES) | Ki [nM]
1 | COc1cc(-c2ccc3c(c2)CN(c2ccnc(C)c2)C3=O)cnc1OC | 100 to 490
2 | COc1ncc(-c2cc(C)c3c(n2)CN(c2cnn(CC#N)c2)C3=O)cn1 | < 100
3 | COc1cc(-c2ccc3c(n2)CN(c2cnn(CCn4cccc4)c2)C3=O)cnc1OC | < 100
4 | Cc1cc(-c2cncc(C(=O)NCC(C)C)c2)nc2c1C(=O)N(c1cnn(CC(F)(F)F)c1)C2(C)C | < 100
5 | C=C1c2nc(-c3cnc(OC)c(OC)c3)ccc2C(=O)N1c1cnn(CC(F)(F)F)c1 | < 100
6 | Cc1cc(-c2cncc(OC(F)F)c2)nc2c1C(=O)N(c1cn[nH]c1)[C@@H]2C | < 100
7 | COc1cc(-c2cc(C)c3c(n2)[C@@](C)(O)N(c2cnn(CC(F)(F)F)c2)C3=O)cnc1OC | < 100
8 | COc1cc(-c2ccc3c(n2)[C@@H](C)N(c2cnn(CC(C)(C)O)c2)C3=O)cnc1OC | < 100
9 | CCc1cc(N2Cc3nc(-c4cnc(OC)c(OC)c4)cc(C)c3C2=O)nn1CC(F)(F)F | < 100
10 | CCOc1ncc(-c2ccc3c(c2)CN(c2cnn(CC#N)c2)C3=O)cc1OC | < 100
11 | Cc1cc(-c2cccc(OC(F)(F)F)c2)nc2c1C(=O)N(c1cnn(CC(F)(F)F)c1)C2 | < 100
12 | Cc1cc(-c2cncc(S(=O)(=O)N(C)C)c2)nc2c1C(=O)N(c1ccn([C@H]3CCOC3)n1)C2 | < 100
13 | COc1cc(-c2ccc3c(n2)CN(c2cncc(C(C)(C)C#N)c2)C3=O)cnc1OC | < 100
14 | COc1cc(-c2cc(C)c3c(c2)CN(c2cnn([C@@H](CO)C(F)(F)F)c2)C3=O)cnc1OC | < 100
15 | Cc1cc(-c2cncc(N)c2)nc2c1C(=O)N(c1cnn(CC(F)(F)F)c1)C2(C)C | < 100
16 | Cc1cc(-c2cncc(C(=O)N3CCCC3)c2)nc2c1C(=O)N(c1cnn(CC(F)(F)F)c1)C2 | 100 to 490
17 | CCc1cc(N2Cc3nc(-c4cnc(OC)c(OC)c4)ccc3C2=O)nn1C | < 100

Further lines, results first:

Row | Ki [nM] | Structure (SMILES)
18 | < 100 | COc1cc(-c2cc(C)c3c(n2)CN(c2cncs2)C3=O)cnc1OC
19 | 100 to 490 | COc1cc(-c2ccc3c(n2)CN(c2ccc(OCC(F)(F)F)nc2)C3=O)cnc1OC
20 | < 100 | COc1cc(-c2cc(Cl)c3c(n2)CN(c2cnn(CC(F)(F)F)c2)C3=O)cnc1OC
21 | < 100 | COc1cc(-c2ccc3c(n2)CN(c2ccn(CC#N)n2)C3=O)cnc1OC
22 | < 100 | CCc1cc(-c2cnc(OC)c(OC)c2)nc2c1C(=O)N(c1cnn(CC(F)(F)F)c1)C2
23 | 100 to 490 | COc1cc(-c2ccc3c(c2)CN(c2cnn(CC4CCCO4)c2)C3=O)cnc1OC (stereo not drawn)
24 | < 100 | CSc1cncc(-c2cc(C)c3c(n2)CN(c2cnn(CC(F)(F)F)c2)C3=O)c1
25 | < 100 | COc1cc(-c2ccc3c(n2)CN(c2cncc(C(C)(C)O)c2)C3=O)cnc1OC
26 | < 100 | COc1cc(OC)cc(-c2cc(C)c3c(n2)[C@@H](C)N(c2cnn(CC(F)(F)F)c2)C3=O)c1
27 | < 100 | COc1cc(-c2ccc3c(c2)CN(c2cccc(Cn4cncn4)c2)C3=O)cnc1OC
28 | 100 to 490 | COc1cc(-c2ccc3c(n2)CN(c2cnn(CCN4CCC(C#N)CC4)c2)C3=O)cnc1OC
29 | 100 to 490 | COc1cc(-c2ccc3c(n2)CN(c2cnn(CCN4CCOCC4)c2)C3=O)cnc1OC
30 | 100 to 490 | COc1cncc(-c2cc(C)c3c(n2)C(C)(C)N(c2ccn(CC(C)(C)O)n2)C3=O)c1
31 | < 100 | COc1cc(-c2ccc3c(n2)CN(c2ccc(N4CCC(C#N)CC4)nc2)C3=O)cnc1OC
32 | < 100 | Cc1cc(-c2cncc(C(=O)NCC(F)(F)F)c2)nc2c1C(=O)N(c1cnn(CC(F)(F)F)c1)C2(C)C
33 | < 100 | COc1cc(-c2ccc3c(n2)CN(c2ccn(CC(F)F)c(=O)c2)C3=O)cnc1OC
34 | < 100 | COc1cc(-c2ccc3c(n2)CN(c2cnn(Cc4ccn(C)n4)c2)C3=O)cnc1OC
35 | < 100 | COc1ncc(-c2cc(C)c3c(n2)C(C)N(c2cnn(CC(F)(F)F)c2)C3=O)cc1C(=O)O (stereo not drawn)
36 | < 100 | COc1cncc(-c2cc(C)c3c(n2)[C@H](C)N(c2ccn(C[C@H](C)O)n2)C3=O)c1
37 | 100 to 490 | CCN(CC)CCn1cc(N2Cc3nc(-c4cnc(OC)c(OC)c4)ccc3C2=O)cn1
38 | < 100 | COc1cc(-c2cc(C)c3c(n2)CN(c2cnc(C(C)(C)O)c(F)c2)C3=O)cnc1OC

Reference: the Kinase Knowledgebase extract (Sharma et al. 2016)
